Here are results for two compounds from patent publication US20090093446A1, “METHOD FOR ALLEVIATING KERATOCONJUNCTIVITIS SICCA” (priority 2007, published 2009).

Common to all, as to assay type: in vivo, human
The test system of test [1] is patients with migraine headache disorder. Kind of test: intranasal capsaicin cream for acute migraine pain, two patients. The following applies: 0.025% by weight capsaicin cream intranasally, both of two migraine patients. As to the method:
Two patients with migraine headache disorder were administered 0.025% by weight capsaicin cream intranasally for acute relief of their migraine pain. Both reported increased lacrimation within 30 minutes of application of the capsaicin cream.

For test [2], the system named is patients with migraine headache. Kind of test: capsaicin cream applied to nasal mucosa in migraine headache. As to conditions: 0.025% by weight capsaicin cream to nasal mucosa.
The test system of test [3] is patients with vasomotor rhinitis (non-allergic rhinitis). Kind of test: double-blind placebo-controlled 2 week evaluation of civamide nasal spray in vasomotor rhinitis. As to conditions: 0.01% by weight civamide nasal spray, 2 weeks. The source says:
Fifty-five (55) patients with vasomotor rhinitis (non-allergic rhinitis) participated in a double-blind placebo-controlled 2 week evaluation of the symptomatic relief afforded patients by 0.01% by weight civamide nasal spray or placebo nasal spray (vehicle for active product). Thirty-one percent (31%) of patients using 0.01% civamide spray reported increased tearing, while 0% of patients on placebo noted such a side effect.

Test [4] concerns normal volunteers. Nature of the test: multi-dose 14 day tolerance study of civamide nasal spray. The following applies: 14 days, 10 normal volunteers.
Test [5] deals with episodic cluster headache patients. Nature of the test: civamide nasal spray versus inactive control in episodic cluster headache. The following applies: 0.01% by weight civamide nasal spray twice daily, 36 patients.
In test [6] the test system is patients with episodic cluster headache. Kind of test: civamide nasal drops in episodic cluster headache. The following applies: 0.025% by weight civamide nasal drops once daily for 1 week, 9 of 18 patients. The source says: In a study utilizing 0.025% by weight civamide nasal drops administered once daily for 1 week to 28 patients with episodic cluster headache (a severe form of vasomotor headache that occurs in general 4-24 week clusters), 9 of 18 patients (50%) on civamide nasal drops had increased tearing versus 0 of 10 patients (0%) on vehicle control.

Structures are written as SMILES. Bounds are passed on as bounds.

For `COc1cc(CNC(=O)CCCC/C=C/C(C)C)ccc1O` [capsaicin], the “time to reported increased lacrimation after application” value in test [1] is at most 30 min. Further, the “patients who reported increased tearing as a side effect” value in test [2] is reported as 44%. Further, the “patients who noted some relief of their headaches” value in test [2] (4 hours after administration) is given as 73%.

On to `COc1cc(CNC(=O)CCCC/C=C\C(C)C)ccc1O` [civamide, cis-8-methyl-N-vanillyle-nonenamide], for which the “patients who reported increased tearing” value in test [3] was found to be 31%; in test [5], 51%. Besides, the “subjects who experienced increased lacrimation (tear production)” value in test [4] (0.0075% by weight civamide nasal spray twice daily) and in test [4] (0.01% by weight civamide nasal spray twice daily) was 100% in each case. In addition, the “subjects who experienced increased tearing” value in test [4] ([…] by weight civamide nasal spray once daily) was 90%. In test [6], the “patients who had increased tearing” value is recorded as 50%.
